We go through 14 compounds from US10245264B2, “Substituted imidazo[1,2-a]pyrazines as soluble guanylate cyclase activators” (Merck Sharp & Dohme Corp., priority 2015, dated 2019).

Structures are written as SMILES.

The target of experiment [1] is T1, sGC α1/β1 heterodimer stably expressed in CHO-K1 cells (CHO-K1/sGC) (Homo sapiens, UniProt Q02108+Q02153).
T1 construct: expressed in transfected cells
T1 sequence (Q02108 1-690): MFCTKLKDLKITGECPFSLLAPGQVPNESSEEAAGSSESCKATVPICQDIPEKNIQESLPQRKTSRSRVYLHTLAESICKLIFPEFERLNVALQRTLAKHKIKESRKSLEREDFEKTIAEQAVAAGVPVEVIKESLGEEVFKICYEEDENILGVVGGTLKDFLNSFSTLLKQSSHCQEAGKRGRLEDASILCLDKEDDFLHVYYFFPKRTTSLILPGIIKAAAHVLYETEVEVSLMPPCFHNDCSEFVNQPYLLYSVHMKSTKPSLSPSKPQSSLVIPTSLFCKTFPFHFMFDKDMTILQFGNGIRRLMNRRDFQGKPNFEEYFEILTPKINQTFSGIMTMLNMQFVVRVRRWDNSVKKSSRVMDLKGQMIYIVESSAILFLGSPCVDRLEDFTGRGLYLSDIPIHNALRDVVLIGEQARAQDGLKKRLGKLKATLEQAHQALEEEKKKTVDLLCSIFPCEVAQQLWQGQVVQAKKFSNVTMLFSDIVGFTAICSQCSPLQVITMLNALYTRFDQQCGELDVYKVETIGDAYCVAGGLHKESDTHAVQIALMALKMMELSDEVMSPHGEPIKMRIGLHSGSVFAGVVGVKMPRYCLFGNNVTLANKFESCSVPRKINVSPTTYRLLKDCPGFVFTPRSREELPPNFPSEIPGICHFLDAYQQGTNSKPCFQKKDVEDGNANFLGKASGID
T1 sequence (Q02153 1-619): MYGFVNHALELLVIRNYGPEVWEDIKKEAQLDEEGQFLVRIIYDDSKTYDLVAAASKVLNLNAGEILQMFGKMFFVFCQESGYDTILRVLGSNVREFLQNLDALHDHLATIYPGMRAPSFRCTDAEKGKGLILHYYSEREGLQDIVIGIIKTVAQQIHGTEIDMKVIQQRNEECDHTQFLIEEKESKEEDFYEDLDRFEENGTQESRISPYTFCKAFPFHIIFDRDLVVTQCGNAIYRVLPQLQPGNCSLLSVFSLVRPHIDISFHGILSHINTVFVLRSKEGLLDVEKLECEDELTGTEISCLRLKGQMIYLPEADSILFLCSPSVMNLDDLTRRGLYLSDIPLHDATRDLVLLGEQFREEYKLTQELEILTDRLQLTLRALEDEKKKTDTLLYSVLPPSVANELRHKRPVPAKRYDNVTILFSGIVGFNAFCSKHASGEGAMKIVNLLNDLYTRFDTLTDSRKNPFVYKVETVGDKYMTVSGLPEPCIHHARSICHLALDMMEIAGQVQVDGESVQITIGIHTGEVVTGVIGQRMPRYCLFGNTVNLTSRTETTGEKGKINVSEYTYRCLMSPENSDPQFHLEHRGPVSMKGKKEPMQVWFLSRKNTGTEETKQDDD
The experiment is described as follows: Cell-based sGC functional assay (CASA assay), cGMP generation by HTRF. The conditions noted are these: for Emax: CHO-K1, maximum cGMP production of Compound A set to 100% activation, read-out: % Act. (percent activation relative to Compound A); for EC50: CHO-K1/sGC cells, 1 hr at 37° C., 4P fit, presence or absence of DETA-NO not given, read-out: IP (nM) (inflection point). The gist of the method:
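CHO-K1/sGC cells (4×10^5/mL) in EBSS with 5 mM MgCl2, 10 mM HEPES, 0.05% BSA and 0.5 mM IBMX, treated 1 hr at 37° C with compounds (2.5% DMSO) with or without 1 μM DETA-NO. cGMP measured by HTRF, expressed as % of a reference heme-dependent activator's maximum; inflection point and fold induction from 4P fit.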
(In general: In TR-FRET formats the signal depends on donor and acceptor labels being close together.)

Experiment [2] has as its system systolic blood pressure in spontaneously hypertensive rats. Nature of the experiment: Acute efficacy in spontaneously hypertensive rats (SHR), telemetry blood pressure. It is filed as in vivo, rat. The source says: Acute Efficacy in Spontaneously Hypertensive Rats (SHR)
Spontaneously hypertensive rats (SHR, male, Charles River) were implanted with DSI TA11 PA-C40 telemetry device (Data Sciences, Inc., St. Paul, Minn.) under isoflurane or ketamine/metomidine anesthesia. The telemetry unit catheter was inserted into the descending aorta via the femoral artery and the telemetry device was implanted subcutaneously in the left flank area. Animals were allowed to recover from surgery for 14 days before the start of any studies. Blood pressure, heart rate, and activity signals from conscious, freely moving rats were recorded continuously for 30 seconds every 10 minutes. On the day prior to administration of compound, a single oral dose of vehicle (10% transcutol/20% Cremophor/70% water) was administered to all animals to establish baseline control data. The blood pressure lowering efficacy of compound (PO) or vehicle was evaluated following a single oral gavage. Data were collected as hourly averages, and changes in blood pressure were calculated by subtracting control baseline data on an hourly basis. Animals were maintained on normal diet with a 12 hour light-dark cycle.
Maximum peak decreases of systolic blood pressure (SBP) in SHR at a particular P.O. dose (mpk milligrams per kilogram) for the following representative compounds are provided below in Table 6.
Category A=SBP in SHRs <20 mmHg; Category B=SBP in SHRs 20-40 mmHg;
Category C=SBP in SHRs >40 mmHg

For `CC1(c2ccc(Cl)cc2)C(=O)Nc2nc(-c3cn4ccnc4c(OCC(F)(F)C(F)(F)F)n3)nc(N)c21` (stereo not shown) [Example 47A, 4-amino-5-(4-chlorophenyl)-5-methyl-2-[8-(2,2,3,3,3-pentafluoro-propoxy)imidazo [1,2-a]pyrazin-6-yl]-5,7-dihydro-6H-pyrrolo[2,3-d] pyrimidin-6-one], in experiment [1], the Emax was 91% and the EC50 was found to be 157 nM. Moreover, the “Maximum peak decrease of systolic blood pressure (SBP), Category” value (shortened to “Maximum peak decrease”) in experiment [2] (single oral dose 1.0 mpk P.O.) is “B (Category B=SBP in SHRs 20-40 mmHg)”.
For `CC1(c2ccc(Cl)cc2)C(=O)Nc2nc(-c3cn4ccnc4c(OCCC4CC4)n3)nc(N)c21` (stereo not shown) [Example 50A, 4-amino-5-(4-chlorophenyl)-2-[8-(2-cyclo-propylethoxy)imidazo[1,2-a]pyrazin-6-yl]-5-methyl-5,7-dihydro-6H-pyrrolo[2,3-d] pyrimidin-6-one], in experiment [1], the Emax turned out to be 106% and the EC50 was 12 nM. The “Maximum peak decrease” value in experiment [2] (single oral dose 0.3 mpk P.O.) is recorded as “B (Category B=SBP in SHRs 20-40 mmHg)”.
As for `CCCSc1nc(-c2nc(N)c3c(n2)NC(=O)C3(C)c2ccc(F)cc2)cn2ccnc12` (stereo not shown) [Example 62A, 4-amino-5-(4-fluorophenyl)-5-methyl-2-[8-(propylsulfanyl)imidazo[1,2-a]pyrazin-6-yl]-5,7-dihydro-6H-pyrrolo [2,3-d]pyrimidin-6-one], in experiment [1], the Emax came to 99% and the EC50 amounted to 142 nM. For the same compound, the “Maximum peak decrease” value in experiment [2] (single oral dose 1.0 mpk P.O.) is reported as “B (Category B=SBP in SHRs 20-40 mmHg)”.
Take `CC1(c2ccc(Cl)cc2)C(=O)Nc2nc(-c3cn4ccnc4c(OCC4CC(F)(F)C4)n3)nc(N)c21` (stereo not shown) [Example 32A, 4-amino-5-(4-chlorophenyl)-2-{8-[(3,3-difluoro-cyclobutyl)methoxy]imidazo [1,2-a]pyrazin-6-yl}-5-methyl-5,7-dihydro-6H-pyrrolo[2,3-d] pyrimidin-6-one]: in experiment [1], the Emax stood at 129% and the EC50 turned out to be 157 nM. The “Maximum peak decrease” value in experiment [2] (single oral dose 1.0 mpk P.O.) is recorded as “B (Category B=SBP in SHRs 20-40 mmHg)”.
`CCCOc1nc(-c2nc(N)c3c(n2)NC(=O)C3(C)c2ccc(Cl)cc2)cn2ccnc12` (stereo not shown) [Example 49A, 4-amino-5-(4-chlorophenyl)-5-methyl-2-(8-propoxyimidazo [1,2-a]pyrazin-6-yl)-5,7-dihydro-6H-pyrrolo[2,3-d] pyrimidin-6-one]: in experiment [1], the Emax came out at 117% and the EC50 stood at 30 nM. In addition, the “Maximum peak decrease” value in experiment [2] (single oral dose 0.3 mpk P.O.) was “B (Category B=SBP in SHRs 20-40 mmHg)”.
In the case of `CC1(c2ccc(Cl)cc2)C(=O)Nc2nc(-c3cn4ccnc4c(Oc4cccnc4)n3)nc(N)c21` (stereo not shown) [Example 30A, 4-amino-5-(4-chlorophenyl)-5-methyl-2-[8-(pyridin-3-yloxy)imidazo[1,2-a]pyrazin-6-yl]-5,7-dihydro-6H-pyrrolo[2,3-d] pyrimidin-6-one], in experiment [1], the Emax stood at 168% and the EC50 amounted to 171 nM. Moreover, the “Maximum peak decrease” value in experiment [2] (single oral dose 1.0 mpk P.O.) was “B (Category B=SBP in SHRs 20-40 mmHg)”.
Regarding `CC1(c2ccc(Cl)cc2)C(=O)Nc2nc(-c3cn4ccnc4c(NCC(F)(F)C(F)(F)F)n3)nc(N)c21` (stereo not shown) [Example 61A, 4-amino-5-(4-chlorophenyl)-5-methyl-2-{8-[(2,2,3,3,3-pentafluoro-propyl)amino]imidazo[1,2-a]pyrazin-6-yl}-5,7-dihydro-6H-pyrrolo [2,3-d]pyrimidin-6-one], in experiment [1], the Emax came out at 116% and the EC50 is 165 nM. Moreover, in experiment [2] (single oral dose 3.0 mpk P.O.), the “Maximum peak decrease” value is on record as “B (Category B=SBP in SHRs 20-40 mmHg)”.
In the case of `CC1(c2ccc(F)cc2)C(=O)Nc2nc(-c3cn4ccnc4c(Oc4ccccc4F)n3)nc(N)c21` (stereo not shown) [Example 4A, 4-amino-2-[8-(2-fluorophenoxy)imidazo[1,2-a]pyrazin-6-yl]-5-(4-fluorophenyl)-5-methyl-5,7-dihydro-6H-pyrrolo[2,3-d] pyrimidin-6-one], in experiment [1], the Emax turned out to be 100% and the EC50 was 62 nM. For the same compound, the “Maximum peak decrease” value in experiment [2] (single oral dose 1.0 mpk P.O.) was “C (Category C=SBP in SHRs >40 mmHg)”.
On to `CCCOc1nc(-c2nc(N)c3c(n2)NC(=O)C3(C)c2ccc(F)cc2)cn2ccnc12` (stereo not shown) [Example 39A, 4-Amino-5-(4-fluorophenyl)-5-methyl-2-(8-propoxyimidazo[1,2-a]pyrazin-6-yl)-5,7-dihydro-6H-pyrrolo[2,3-d]pyrimidin-6-one], for which, in experiment [1], the Emax is 109% and the EC50 was 148 nM. Further, the “Maximum peak decrease” value in experiment [2] (single oral dose 1.0 mpk P.O.) is recorded as “C (Category C=SBP in SHRs >40 mmHg)”.
Regarding `CC1(c2ccccc2)C(=O)Nc2nc(-c3cn4ccnc4c(Oc4ccccc4)n3)nc(N)c21` (stereo not shown) [Example 10B, 4-amino-5-methyl-2-(8-phenoxy-imidazo[1,2-a]pyrazin-6-yl)-5-phenyl-5,7-dihydro-6H-pyrrolo[2,3-d] pyrimidin-6-one], in experiment [1], the Emax came to 127% and the EC50 was found to be 45 nM. Besides, the “Maximum peak decrease” value in experiment [2] (single oral dose 0.3 mpk P.O.) is “B (Category B=SBP in SHRs 20-40 mmHg)”.
With `COCCNc1nc(-c2nc(N)c3c(n2)NC(=O)C3(C)c2ccc(Cl)cc2)cn2ccnc12` (stereo not shown) [Example 40A, 4-Amino-5-(4-chlorophenyl)-2-{8-[(2-methoxyethyl)amino]imidazo[1,2-a]pyrazin-6-yl}-5-methyl-5,7-dihydro-6H-pyrrolo[2,3-d]pyrimidin-6-one], in experiment [1], the Emax amounted to 117% and the EC50 worked out at 85 nM. Moreover, the “Maximum peak decrease” value in experiment [2] (single oral dose 1.0 mpk P.O.) was “B (Category B=SBP in SHRs 20-40 mmHg)”.
For `CC(C)COc1nc(-c2nc(N)c3c(n2)NC(=O)C3(C)c2ccc(F)cc2)cn2ccnc12` (stereo not shown) [Example 51A, 4-amino-5-(4-fluorophenyl)-5-methyl-2-[8-(2-methyl-propoxy)imidazo [1,2-a]pyrazin-6-yl]-5,7-dihydro-6H-pyrrolo[2,3-d] pyrimidin-6-one], in experiment [1], the Emax was 127% and the EC50 came out at 27 nM. In experiment [2] (single oral dose 0.3 mpk P.O.), the “Maximum peak decrease” value is “B (Category B=SBP in SHRs 20-40 mmHg)”.
In the case of `CC1(c2ccc(Cl)cc2)C(=O)Nc2nc(-c3cn4ccnc4c(Oc4cc(F)ccc4F)n3)nc(N)c21` (stereo not shown) [Example 27A, 4-amino-5-(4-chlorophenyl)-2-[8-(2,5-difluoro-phenoxy)imidazo [1,2-a]pyrazin-6-yl]-5-methyl-5,7-dihydro-6H-pyrrolo[2,3-d] pyrimidin-6-one], in experiment [1], the Emax came to 128% and the EC50 is 47 nM.
On the same counts, the results for `CC1(c2ccc(F)cc2)C(=O)Nc2nc(-c3cn4ccnc4c(Oc4cc(F)ccc4F)n3)nc(N)c21` (stereo not shown) [Example 25A, 4-amino-2-[8-(2,5-difluorophenoxy)imidazo[1,2-a]pyrazin-6-yl]-5-(4-fluorophenyl)-5-methyl-5,7-dihydro-6H-pyrrolo[2,3-d] pyrimidin-6-one] are 97% and 32 nM.
